The test system of one assay is CT26 tumors. The settings on record: cited from earlier work.
A further assay concerns Renca tumors. The note with it: cited from earlier work.
Assay [1] relates to ID8 peritoneal disseminated ovarian tumors. The assay is described as follows: pIL-12/PPC plus paclitaxel in peritoneal disseminated ovarian tumors. In kind it is in vivo, mouse. How it is done:
Intraperitoneal IL-12 gene therapy was combined with paclitaxel chemotherapy to enhance the therapeutic response to disseminated ovarian tumors in mice. The mice were injected intraperitoneally with 5×10^6 ID8 cells in a volume of 500 μl. The treatments were started when tumor burden (mouse weight) reached approximately 20 grams (˜21 days after injection of cells). The mice were injected intraperitoneally with 25 μg of pmIL-12 complexed with PPC at a 11:1 N:P ratio in a volume of 500 μl. The gene treatment was repeated after 7 days constituting a total of two injections (Day 1, 8) per the study. Paclitaxel (Taxol®) was administered only once (Day 0) by intravenous injection at a dose of 8 mg/kg dose in an injection volume of 250 μL. For combination therapy, both gene therapy and chemotherapy treatments were given as described above. Animals were periodically weighed to assess the effect of gene treatment on tumor burden. […] The inhibition of tumor burden by pmIL-12/PPC complexes was slightly higher than that of paclitaxel.

For assay [2], the system named is SCCVII squamous cell carcinoma. The assay can be described thus: Subcutaneous squamous cell carcinoma (SCCVII) tumor growth. The settings on record: pmIL-12/PPC 25 μg intratumoral weekly x4, two injections. In kind it is in vivo, mouse.
Description: The effect of local administration of pIL-12/PPC complexes on the growth of subcutaneously implanted squamous cell (SCCVII) carcinoma was examined. 4×10^5 squamous carcinoma cells in 100 μl were implanted sc on the right flank of female Female CH3 mice (6-9 weeks, 17-22 grams) The mIL-12 plasmid was complexed with PPC at a 11:1 N:P ratio and administered locally into the tumors at a DNA dose of 25 μg in an injection volume of 50 μl once every week for four weeks starting ˜11 days after tumor implantation. Treatment groups of 12 mice were used and tumor growth was monitored twice per week using caliper measurement.
For combination therapy both gene therapy and chemotherapy treatment were given as described above. Treatment groups of 12 mice were used and tumor growth was monitored twice per week using caliper measurement.

IFN-α: the rejection rate in the assay on CT26 tumors is recorded as 0%. Moreover, in the assay with Renca tumors, the tumor rejection is recorded as 25%.

Regarding `CC(=O)O[C@H]1C(=O)[C@@]2(C)[C@H]([C@H](OC(=O)c3ccccc3)[C@]3(O)C[C@H](OC(=O)[C@H](O)[C@@H](NC(=O)c4ccccc4)c4ccccc4)C(C)=C1C3(C)C)[C@]1(OC(C)=O)CO[C@@H]1C[C@@H]2O` [paclitaxel], in assay [1] (pmIL-12 25 μg ip day 1, 8, paclitaxel 8 mg/kg iv day 0), the peritoneal tumor burden entry is “tumor reduction”. Further, the survival entry in assay [1] (pmIL-12/PPC ip, paclitaxel 8 mg/kg iv) is “improved survival”.

In the case of `O=P1(N(CCCl)CCCl)NCCCO1` (stereo not drawn) [cyclophosphamide], the “tumor growth in combination study” value in assay [2] (cyclophosphamide 200 mg/kg iv) is given as “only a partial inhibition of tumor growth”. In assay [2] (cyclophosphamide iv), the “animals that completely rejected the tumor (complete rejection rate)” value is 10%.

(Values after patent US9468687B2, “Immuno gene therapy for treatment of cancer and hyperproliferative diseases” (priority 2004, dated 2016).)
